From US11612586B2, “Indole regulation of antigen presenting cells” (THE TEXAS A&M UNIVERSITY SYSTEM, priority 2016, dated 2023)

Key:
nitric oxide (NO) = experiment: Nitric oxide production in DC2.4 and BMDC (Griess reaction)
Method: The secretion of reactive oxygen species (ROS) and nitric oxide (NO) was investigated in DC2.4 and BMDC.
Supernatants were then incubated with Griess reagent for 10 minutes and then absorbance was measured at 550 nm.

Akt = experiment: phospho-Akt in BMDCs, flow cytometry; format: cell-based, mouse
Method: Flow cytometric analysis was performed on BMDCs conditioned with indole from day 3 of culture and subsequently stimulated with LPS (5 ug/ml) for the given times. Cells were stained for phospho-Akt and analyzed by flow cytometry.
Flow cytometric analysis was performed on BMDCs from WT or AhrKO mice cultured in the presence of indole (1 mM) from day 3. DCs were stimulated with LPS (5 ug/ml) for the given times and stained for phospho-Akt, which was detected by flow cytometry. Percentage of pAkt-positive DCs indicated. Representative data is from one of three independent experiments.
Another central mediator of cellular signaling is the serine/threonine kinase, Akt (also referred to as protein kinase B), which regulates cellular processes including metabolism, growth, proliferation, and survival. The Akt pathway is activated by numerous receptor tyrosine kinases, cytokine receptors, G-protein-coupled receptors, and other molecules which activate the lipid kinase PI3K and result in production of phosphatidylinositol (3,4,5)-trisphosphate (PIPS). This second messenger acts as a docking site at the plasma membrane for Akt where phosphorylation and activation occurs. Akt is located upstream of NF-kB and can induce NF-kB signaling via phosphorylation of IKKα and Tp12. The effect of indole on Akt phosphorylation was assessed to determine whether indole's inhibition of NF-kB might be a secondary effect due to modulation of an upstream target.
The inventors performed a series of assays where bone marrow derived macrophages (BMDMs), bone marrow derived dendritic cells (BMDCs), and splenic dendritic cells (splenic DCs), were exposed to a series of TDMMs, including indole, indole-3-acetate (I3AT), 5-hydroxyindole (5HI), and indole-3-pyruvate (I3P), as well as indole-3-carbinol (I3C; a plant derived compound) to be used for a positive control (1 mM for 24 hours). The BMDMs and BMDCs were stimulated with LPS for 4 hours and assayed at day 7 for expression of various pro-inflammatory cytokines. In a similar assay, the BMDMs and BMDCs were stimulated with LPS or CpG, respectively, for 15 minutes and assayed for pAKT and pERK signaling, which is a reflection of pro-inflammatory response.

Stat3 = experiment: IL-6-induced phospho-Stat3 in BMDMs; format: cell-based, mouse
Method: BMDMs were treated with indole or DMF control for 18 hours, then stimulated with IL-6 (10 ng/ml) for the given times. Cells were stained for phospho-Stat3 and analyzed by flow cytometry.
Similarly, the ex vivo indole conditioning of splenocytes was repeated with tissues from AhR-deficient and wild-type mice and analyzed TNF production. […] Importantly, in this set of experiments splenocytes were stimulated with LPS, heat-killed S. typhimurium, and CpG. […] Specifically, BMDMs were generated from WT or AhR-KO mice and treated with indole (1 mM) or DMF control for 18 hours. BMDMs were then stimulated with IL-6 (10 ng/ml) for the given times and stained for phospho-Stat3, which was detected by flow cytometry.

Th17 cells = experiment: Th17 differentiation in DC-T cell co-culture; format: cell-based, mouse; conditions: co-culture with DCs conditioned with indole, Th17-skewing cytokines present
Method: FIGS. 19A-19C graphically illustrate that indole-conditioned DCs inhibit Th1, Th2, and Th17 differentiation. Naïve CD4+CD25-T cells from OT-II TCR transgenic mice were isolated by column purification. Naïve T cells were then co-cultured with OVA323-339 peptide-loaded BMDCs for 72 hours in the presence or absence of lineage-skewing cytokines (described in methods). BMDCs were previously treated with indole, RA, or DMF from day 3. For the last 5 hours of culture, T cells were restimulated with PMA and ionomycin in the presence of Golgiplug, followed by intracellular staining. Cytokine production was determined to assess differentiation of Th1 (FIG. 19A), Th2 (FIG. 19B), and Th17 CD4+T (FIG. 19C) cells. Mean of three independent experiments. * indicates p<0.05 for one-way ANOVA followed by Dunnett's post-test.
In order to determine whether the indole-conditioned DC induction of Tregs was specific to this lineage, additional T cell fates were quieried. Activated CD4+T helper cells are typically divided into the subsets Th1, Th2, Th17, and Treg, based on their expression of transcription factors and pattern of cytokine secretion. The antigen-specific co-culture system was used to investigate these remaining traditional T cell lineages with the addition of an endpoint PMA/Ionomycin stimulation to induce cytokine secretion. […]

Structure (SMILES): c1ccc2[nH]ccc2c1 [Indole, indole]
- secretion of nitric oxide (NO) (nitric oxide (NO)): intact
- pAKT (Akt; BMDCs, 1 mM TDMM 24 hours, CpG (5 uM) 15 minutes): ↓↓
- reduction of phospho-Akt (Akt; BMDCs, 1 mM indole, 30 minutes post-LPS stimulation): over 50%
- phospho-Akt in the absence of external stimulation (Akt; BMDCs, indole versus controls, unstimulated): No difference
- inhibition of Akt phospho-signaling, WT versus AhR−/− (Akt; indole-DCs generated from WT or AhR−/− bone marrow): nearly equivalent inhibition
- reduction of Stat3 signaling (Stat3; BMDMs from WT or AhR-KO mice, 1 mM indole 18 hours, IL-6 10 ng/ml): over 60%
- reduction of number of macrophages undergoing Stat3 phosphorylation (Stat3; BMDMs, overnight indole, IL-6 stimulation): 50%
- Th17 differentiation, rate of T cells (Th17 cells): less than 0.5%
